Reference: the NIST ThermoML archive (doi:10.1021/je900134z)
Numbers after ± are expanded uncertainties.

Tests used:
[1] = refractive index (Na D-line) (dimensionless); conditions: 101.33 kPa, Liquid
[2] = for mass density / viscosity: 101.33 kPa, Liquid; for viscosity: Surface Light Scattering; for surface tension liquid-gas: Drop weight

CCCCn1cc[n+](CCCC)c1.O=S(=O)([N-]S(=O)(=O)C(F)(F)F)C(F)(F)F
Conditions | mass density [kg/m3] | refractive index | surface tension liquid-gas [mN/m] | viscosity [mPa·s]
[1], 283.15 K | – | 1.4376 ± 0.0016 | – | –
[1], 293.15 K | – | 1.4347 ± 0.0015 | – | –
[1], 303.15 K | – | 1.4324 ± 0.0015 | – | –
[1], 313.15 K | – | 1.4298 ± 0.0015 | – | –
[2], 273.15 K | 1362.73 ± 2 | – | – | 277.9 ± 17
[2], 278.15 K | 1358.06 ± 2 | – | – | 203 ± 12
[2], 283.15 K | 1353.51 ± 2 | – | – | 152.1 ± 9.2
[2], 288.15 K | 1349.01 ± 1.9 | – | – | 115.3 ± 6.9
[2], 293.15 K | 1344.5 ± 1.9 | – | 29.55 ± 0.62 | 89.5 ± 5.4
[2], 298.15 K | 1340.01 ± 1.9 | – | – | –
[2], 303.15 K | 1335.51 ± 1.9 | – | – | 57.2 ± 3.4
[2], 308.15 K | 1331.02 ± 1.9 | – | – | –
[2], 313.15 K | 1326.56 ± 1.9 | – | – | 37.9 ± 2.3
[2], 318.15 K | 1322.09 ± 1.9 | – | – | –
[2], 323.15 K | – | – | – | 26.5 ± 1.6
[2], 328.15 K | 1313.2 ± 1.8 | – | – | –
[2], 333.15 K | 1308.77 ± 1.8 | – | – | 19.2 ± 1.2
[2], 338.15 K | 1304.36 ± 1.8 | – | – | –
[2], 343.15 K | 1299.99 ± 1.8 | – | – | –
[2], 348.15 K | 1295.57 ± 1.8 | – | – | –
[2], 353.15 K | 1291.2 ± 1.8 | – | – | –
[2], 358.15 K | 1286.84 ± 1.7 | – | – | –
[2], 363.15 K | 1282.5 ± 1.7 | – | – | –

CCn1cc[n+](C)c1.CS(=O)(=O)[O-] [1-ethyl-3-methylimidazolium methanesulfonate]
Conditions | mass density [kg/m3] | refractive index | surface tension liquid-gas [mN/m] | viscosity [mPa·s]
[1], 283.15 K | – | 1.5018 ± 0.0015 | – | –
[1], 293.15 K | – | 1.4996 ± 0.0015 | – | –
[1], 303.15 K | – | 1.4977 ± 0.0015 | – | –
[1], 313.15 K | – | 1.4949 ± 0.0015 | – | –
[2], 273.15 K | 1259.14 ± 1.6 | – | – | 1112.6 ± 67
[2], 278.15 K | 1255.59 ± 1.6 | – | – | 676.3 ± 41
[2], 283.15 K | 1252.04 ± 1.5 | – | – | 435.5 ± 26
[2], 288.15 K | 1248.49 ± 1.5 | – | – | 290.1 ± 18
[2], 293.15 K | 1244.96 ± 1.5 | – | 50.72 ± 1.1 | 205.2 ± 12
[2], 298.15 K | 1241.52 ± 1.5 | – | – | –
[2], 303.15 K | 1238.15 ± 1.5 | – | – | 112.9 ± 6.8
[2], 308.15 K | 1234.77 ± 1.5 | – | – | –
[2], 313.15 K | 1231.4 ± 1.4 | – | – | 69 ± 4.2
[2], 318.15 K | 1228.03 ± 1.4 | – | – | –
[2], 323.15 K | – | – | – | 44.6 ± 2.7
[2], 328.15 K | 1221.33 ± 1.4 | – | – | –
[2], 333.15 K | 1218 ± 1.4 | – | – | 31.7 ± 1.9
[2], 338.15 K | 1214.69 ± 1.4 | – | – | –
[2], 343.15 K | 1211.38 ± 1.4 | – | – | –
[2], 348.15 K | 1208.09 ± 1.4 | – | – | –
[2], 353.15 K | 1204.82 ± 1.4 | – | – | –
[2], 358.15 K | 1201.56 ± 1.4 | – | – | –
[2], 363.15 K | 1198.31 ± 1.3 | – | – | –

CCn1cc[n+](C)c1.CO[PH](=O)[O-] [1-ethyl-3-methylimidazolium methyl phosphonate]
Conditions | mass density [kg/m3] | refractive index | surface tension liquid-gas [mN/m] | viscosity [mPa·s]
[1], 283.15 K | – | 1.4969 ± 0.0016 | – | –
[1], 293.15 K | – | 1.4935 ± 0.0016 | – | –
[1], 303.15 K | – | 1.4928 ± 0.0016 | – | –
[1], 313.15 K | – | 1.4902 ± 0.0016 | – | –
[2], 273.15 K | 1208.75 ± 2.2 | – | – | 563.9 ± 34
[2], 278.15 K | 1205.29 ± 2.2 | – | – | 379.6 ± 23
[2], 283.15 K | 1201.82 ± 2.2 | – | – | 266.6 ± 16
[2], 288.15 K | 1198.42 ± 2.1 | – | – | 193.2 ± 12
[2], 293.15 K | 1195.12 ± 2.1 | – | 45.49 ± 1 | 143.1 ± 8.7
[2], 298.15 K | 1191.82 ± 2.1 | – | – | –
[2], 303.15 K | 1188.5 ± 2.1 | – | – | 83.4 ± 5.1
[2], 308.15 K | 1185.21 ± 2.1 | – | – | –
[2], 313.15 K | 1181.92 ± 2.1 | – | – | 53.9 ± 3.3
[2], 318.15 K | 1178.65 ± 2 | – | – | –
[2], 323.15 K | 1175.39 ± 2 | – | – | 36.4 ± 2.2
[2], 328.15 K | 1172.14 ± 2 | – | – | –
[2], 333.15 K | 1168.89 ± 2 | – | – | 27.4 ± 1.7
[2], 338.15 K | 1165.66 ± 2 | – | – | –
[2], 343.15 K | 1162.45 ± 2 | – | – | –
[2], 348.15 K | 1159.25 ± 1.9 | – | – | –
[2], 353.15 K | 1156.06 ± 1.9 | – | – | –
[2], 358.15 K | 1152.9 ± 1.9 | – | – | –
[2], 363.15 K | 1149.73 ± 1.9 | – | – | –

CCCCCCCCOS(=O)(=O)[O-].CCn1cc[n+](C)c1 [1-ethyl-3-methylimidazolium octyl sulfate]
Conditions | mass density [kg/m3] | refractive index | surface tension liquid-gas [mN/m] | viscosity [mPa·s]
[1], 283.15 K | – | 1.4786 ± 0.0015 | – | –
[1], 293.15 K | – | 1.4766 ± 0.0015 | – | –
[1], 303.15 K | – | 1.4737 ± 0.0015 | – | –
[1], 313.15 K | – | 1.4712 ± 0.0015 | – | –
[2], 273.15 K | 1111.56 ± 1.1 | – | – | 3894.8 ± 230
[2], 278.15 K | 1108 ± 1.1 | – | – | 2429.9 ± 150
[2], 283.15 K | 1104.34 ± 1.1 | – | – | 1578.5 ± 95
[2], 288.15 K | 1100.82 ± 1.1 | – | – | 1045.1 ± 63
[2], 293.15 K | 1097.48 ± 1.1 | – | 31 ± 0.65 | 717.8 ± 43
[2], 298.15 K | 1094.15 ± 1.1 | – | – | –
[2], 303.15 K | 1090.83 ± 1.1 | – | – | 368.1 ± 22
[2], 308.15 K | 1087.52 ± 1.1 | – | – | –
[2], 313.15 K | 1084.2 ± 1 | – | – | 208.1 ± 12
[2], 318.15 K | 1080.97 ± 1 | – | – | –
[2], 323.15 K | – | – | – | 126.2 ± 7.6
[2], 328.15 K | 1074.55 ± 1 | – | – | –
[2], 333.15 K | 1071.34 ± 1 | – | – | 80.9 ± 4.9
[2], 338.15 K | 1068.14 ± 1 | – | – | –
[2], 343.15 K | 1064.94 ± 0.99 | – | – | –
[2], 348.15 K | 1061.76 ± 0.98 | – | – | –
[2], 353.15 K | 1058.59 ± 0.97 | – | – | –
[2], 358.15 K | 1055.42 ± 0.96 | – | – | –
[2], 363.15 K | 1052.26 ± 0.96 | – | – | –
